Structures are written as SMILES. Values after ≈ are worked out from the molar mass of the structure shown. Where only a bound is given, the exact number is not on record here.

Data on 25 compounds can be found in ChEMBL document CHEMBL1146607, “Synthesis and antifungal activity of 2,5-disubstituted-6-arylamino-4,7-benzimidazolediones” (2003).

What all share (format): functional
For one assay, the system named is Aspergillus niger. Kind of assay: In vitro antifungal activity against Aspergillus niger KCTC 1231 was measured.
In the next assay the test system is Candida albicans. Kind of assay: In vitro antifungal activity against Candida albicans ATCC 10231 was measured.
For the next assay, the system named is Pichia kudriavzevii. In words: In vitro antifungal activity against Candida krusei ATCC 749 was measured.
For another assay, the system named is Candida tropicalis. In words: In vitro antifungal activity against Candida tropicalis ATCC 28775 was measured.

Take `COc1ccc(NC2=C(Cl)C(=O)c3nc(-c4ccccn4)[nH]c3C2=O)cc1`: the minimum inhibitory concentration (MIC) with Aspergillus niger was 25 µg/mL (≈ 65.7 µM); in the assay with Candida albicans it was 12.5 µg/mL (≈ 32.8 µM); in the assay on Pichia kudriavzevii it was 12.5 µg/mL (≈ 32.8 µM); in the assay on Candida tropicalis it was 1.6 µg/mL (≈ 4.2 µM).
As to `O=C1C(Cl)=C(Nc2ccc(F)cc2)C(=O)c2[nH]c(-c3ccncc3)nc21`, the minimum inhibitory concentration (MIC) against Aspergillus niger is 100 µg/mL (≈ 271 µM); in the assay with Candida albicans, greater than 100 µg/mL; in the assay on Pichia kudriavzevii, greater than 100 µg/mL; in the assay with Candida tropicalis, 6.3 µg/mL (≈ 17.1 µM).
Consider `COc1ccc(NC2=C(Cl)C(=O)c3nc(-c4cccnc4)[nH]c3C2=O)cc1`, for which the MIC was 100 µg/mL (≈ 263 µM) in the assay on Aspergillus niger, greater than 100 µg/mL against Candida albicans, greater than 100 µg/mL against Pichia kudriavzevii and 50 µg/mL (≈ 131 µM) in the assay on Candida tropicalis.
Take `O=C1C(Cl)=C(Nc2ccc(F)cc2)C(=O)c2[nH]c(-c3ccccn3)nc21`: the minimal inhibitory concentration (MIC) against Aspergillus niger is 25 µg/mL (≈ 67.8 µM); against Candida albicans, 12.5 µg/mL (≈ 33.9 µM); with Pichia kudriavzevii, 6.3 µg/mL (≈ 17.1 µM); with Candida tropicalis it was 3.2 µg/mL (≈ 8.68 µM).
`O=C1C(Cl)=C(Cl)C(=O)c2[nH]c(-c3ccccn3)nc21`: the minimum inhibitory concentration (MIC) was 100 µg/mL (≈ 340 µM) in the assay on Aspergillus niger, greater than 100 µg/mL with Candida albicans, greater than 100 µg/mL against Pichia kudriavzevii and 25 µg/mL (≈ 85 µM) against Candida tropicalis.
As to `O=C1C=C(Nc2ccc(Br)cc2)C(=O)c2[nH]c(-c3ccccn3)nc21`, the minimal inhibitory concentration (MIC) was determined as 1.6 µg/mL (≈ 4.05 µM) in the assay on Aspergillus niger, 50 µg/mL (≈ 127 µM) against Candida albicans, 1.6 µg/mL (≈ 4.05 µM) against Pichia kudriavzevii and 0.8 µg/mL (≈ 2.02 µM) in the assay with Candida tropicalis.
As for `O=C1C=C(Nc2ccc(Cl)cc2)C(=O)c2[nH]c(-c3ccccn3)nc21`, the MIC with Aspergillus niger amounted to 3.2 µg/mL (≈ 9.12 µM); in the assay with Candida albicans, 50 µg/mL (≈ 143 µM); against Pichia kudriavzevii, 1.6 µg/mL (≈ 4.56 µM); against Candida tropicalis it was 0.8 µg/mL (≈ 2.28 µM).
Turning to `O=C1C=CC(=O)c2[nH]c(-c3ccccn3)nc21`, the minimal inhibitory concentration (MIC) in the assay on Aspergillus niger was 100 µg/mL (≈ 444 µM); against Candida albicans, greater than 100 µg/mL; with Pichia kudriavzevii, greater than 100 µg/mL; against Candida tropicalis it was 100 µg/mL (≈ 444 µM).
With `O=C1C=C(Nc2ccc(I)cc2)C(=O)c2[nH]c(-c3ccccn3)nc21`, the MIC against Aspergillus niger is 100 µg/mL (≈ 226 µM); with Candida albicans it was 50 µg/mL (≈ 113 µM); against Pichia kudriavzevii, 1.6 µg/mL (≈ 3.62 µM); in the assay on Candida tropicalis, 0.8 µg/mL (≈ 1.81 µM).
For `Cc1ccc(NC2=C(Cl)C(=O)c3nc(-c4ccccn4)[nH]c3C2=O)cc1`, in that order: 25 µg/mL (≈ 68.5 µM), 12.5 µg/mL (≈ 34.3 µM), 3.2 µg/mL (≈ 8.77 µM) and 1.6 µg/mL (≈ 4.39 µM).
As to `COc1ccc(NC2=C(Cl)C(=O)c3nc(-c4ccncc4)[nH]c3C2=O)cc1`, the minimal inhibitory concentration (MIC) was 100 µg/mL (≈ 263 µM) against Aspergillus niger, greater than 100 µg/mL against Candida albicans, greater than 100 µg/mL with Pichia kudriavzevii and 25 µg/mL (≈ 65.7 µM) against Candida tropicalis.
On to `O=C1C(Cl)=C(Nc2ccc(F)cc2)C(=O)c2[nH]c(-c3cccnc3)nc21`, for which the MIC against Aspergillus niger is 100 µg/mL (≈ 271 µM); in the assay with Candida albicans, greater than 100 µg/mL; against Pichia kudriavzevii, greater than 100 µg/mL; in the assay with Candida tropicalis, 12.5 µg/mL (≈ 33.9 µM).
As for `CCOc1ccc(NC2=C(Cl)C(=O)c3[nH]c(-c4ccccn4)nc3C2=O)cc1`, the MIC amounted to 25 µg/mL (≈ 63.3 µM) in the assay with Aspergillus niger, 12.5 µg/mL (≈ 31.7 µM) with Candida albicans, 12.5 µg/mL (≈ 31.7 µM) against Pichia kudriavzevii and 3.2 µg/mL (≈ 8.11 µM) in the assay with Candida tropicalis.
In the case of `O=C1C(Cl)=C(Nc2ccc(Br)cc2)C(=O)c2[nH]c(-c3ccncc3)nc21`, the minimal inhibitory concentration (MIC) against Aspergillus niger is 100 µg/mL (≈ 233 µM); against Candida albicans, greater than 100 µg/mL; in the assay with Pichia kudriavzevii, greater than 100 µg/mL; against Candida tropicalis, 12.5 µg/mL (≈ 29.1 µM).
With `O=C1C(Cl)=C(Nc2ccc(Br)cc2)C(=O)c2[nH]c(-c3cccnc3)nc21`, the MIC in the assay on Aspergillus niger is 100 µg/mL (≈ 233 µM); with Candida albicans, greater than 100 µg/mL; in the assay with Pichia kudriavzevii it was greater than 100 µg/mL; with Candida tropicalis, 50 µg/mL (≈ 116 µM).
With `O=C1C(Cl)=C(Nc2ccc(Cl)cc2)C(=O)c2[nH]c(-c3cccnc3)nc21`, the minimal inhibitory concentration (MIC) against Aspergillus niger was 100 µg/mL (≈ 260 µM); against Candida albicans it was greater than 100 µg/mL; in the assay on Pichia kudriavzevii, greater than 100 µg/mL; in the assay with Candida tropicalis, 25 µg/mL (≈ 64.9 µM).
Take `O=C1C(Cl)=C(Nc2ccc(Br)cc2)C(=O)c2[nH]c(-c3ccccn3)nc21`: the minimal inhibitory concentration (MIC) against Aspergillus niger is 6.3 µg/mL (≈ 14.7 µM); in the assay with Candida albicans, 3.2 µg/mL (≈ 7.45 µM); in the assay on Pichia kudriavzevii, 6.3 µg/mL (≈ 14.7 µM); against Candida tropicalis, 1.6 µg/mL (≈ 3.72 µM).
As to `Cc1ccc(NC2=CC(=O)c3[nH]c(-c4ccccn4)nc3C2=O)cc1`, the MIC turned out to be 6.3 µg/mL (≈ 19.1 µM) in the assay on Aspergillus niger, 3.2 µg/mL (≈ 9.69 µM) against Candida albicans, 0.4 µg/mL (≈ 1.21 µM) in the assay on Pichia kudriavzevii and 0.8 µg/mL (≈ 2.42 µM) against Candida tropicalis.
For `O=C1C(Cl)=C(Nc2ccc(Cl)cc2)C(=O)c2[nH]c(-c3ccccn3)nc21`, in that order: 6.3 µg/mL (≈ 16.4 µM), 6.3 µg/mL (≈ 16.4 µM), 6.3 µg/mL (≈ 16.4 µM) and 3.2 µg/mL (≈ 8.31 µM).
For `COc1ccc(NC2=CC(=O)c3[nH]c(-c4ccccn4)nc3C2=O)cc1`, in that order: 50 µg/mL (≈ 144 µM), 6.3 µg/mL (≈ 18.2 µM), 1.6 µg/mL (≈ 4.62 µM) and 0.8 µg/mL (≈ 2.31 µM).
As for `O=C1C(Nc2ccc(F)cc2)=CC(=O)c2[nH]c(-c3ccccn3)nc21`, the minimum inhibitory concentration (MIC) with Aspergillus niger worked out at 100 µg/mL (≈ 299 µM); with Candida albicans, 100 µg/mL (≈ 299 µM); in the assay on Pichia kudriavzevii, 50 µg/mL (≈ 150 µM); against Candida tropicalis it was 1.6 µg/mL (≈ 4.79 µM).
In the case of `CCOc1ccc(NC2=CC(=O)c3nc(-c4ccccn4)[nH]c3C2=O)cc1`, the MIC in the assay with Aspergillus niger worked out at 50 µg/mL (≈ 139 µM); against Candida albicans, 50 µg/mL (≈ 139 µM); in the assay on Pichia kudriavzevii, 1.6 µg/mL (≈ 4.44 µM); in the assay with Candida tropicalis, 0.8 µg/mL (≈ 2.22 µM).
For the compound `O=C1C(Cl)=C(Nc2ccc(I)cc2)C(=O)c2[nH]c(-c3ccccn3)nc21`, the minimum inhibitory concentration (MIC) against Aspergillus niger is greater than 100 µg/mL; with Candida albicans, 50 µg/mL (≈ 105 µM); against Pichia kudriavzevii, 100 µg/mL (≈ 210 µM); against Candida tropicalis, 3.2 µg/mL (≈ 6.71 µM).
For `O=C1C(Cl)=C(Nc2ccc(Cl)cc2)C(=O)c2[nH]c(-c3ccncc3)nc21`, in that order: 100 µg/mL (≈ 260 µM), greater than 100 µg/mL, greater than 100 µg/mL and 3.2 µg/mL (≈ 8.31 µM).
For `Nc1nc(=O)[nH]cc1F` [FLUCYTOSINE], in that order: 6.3 µg/mL (≈ 48.8 µM), 3.2 µg/mL (≈ 24.8 µM), 6.3 µg/mL (≈ 48.8 µM) and 6.3 µg/mL (≈ 48.8 µM).
